In patent US11578056B2, “Solid forms comprising (S)-2-(2,6-dioxopiperidin-3-yl)-4-((2-fluoro-4-((3-morpholinoazetidin-1-yl)methyl)benzyl)amino)isoindoline-1,3-dione and salts thereof, and compositions comprising and methods of using the same” (Celgene Corporation, priority 2019, dated 2023):

What was measured:
Type in all cases: cell-based
hematological cell lines = assay: Hematological cell line viability/apoptosis flow cytometry assay, whole panel; details: panel of hematological cell lines, 0.00015 to 10 μM, 5 days
Procedure: (§1) Cell Proliferation and Viability Assay Using Hematological Cell Lines: The following exemplary anti-proliferative assay uses exemplary hematological cell lines in the following. The in vitro growth inhibitory activity of Compound 1 described herein was evaluated using a 384-well flow cytometry assay.
The cell lines were plated in 384-well flat bottom plates and assessed with increasing concentrations of compound ranging from 0.00015 to 10 μM or dimethyl sulfoxide (DMSO) control. The final concentration of DMSO was 0.1% (v/v). Following the addition of Compound 1 or DMSO and incubation for 120 hours, cell number and cell death were analyzed by flow cytometry (Attune®, Thermo Fisher) using Annexin V and the live-cell impermeant DNA dye, DRAQ7. […]
Flow cytometry data analysis was then performed using the Flow Jo_v10 software to determine the number of viable cells (Annexin V and DRAQ7 double negative staining cells) and percentage of apoptotic cells (Annexin V positive cells) for each condition. […] The IC50 (50% inhibitory concentration) and Emax (maximum efficacy achieved) values were then calculated by performing nonlinear regression curve fitting using log(inhibitor) vs. normalized response—variable slope analysis on GraphPad Prism 7.03. Area under the curve (AUC) was calculated by performing area under curve analysis on GraphPad Prism 7.03. […]

Karpas-231 cell line = assay: Hematological cell line viability/apoptosis flow cytometry assay; details: Karpas-231 (ALL), 120 h
Procedure: as §1
The final concentration of DMSO was 0.1% (v/v). Following the addition of Compound 1 or DMSO and incubation for 120 hours, cell number and cell death were analyzed by flow cytometry (Attune®, Thermo Fisher) using Annexin V and the live-cell impermeant DNA dye, DRAQ7. Phosphatidylserine translocates from the inner layer to the outer layer of the cell membrane early in apoptosis and Annexin V binds to the exposed phosphatidylserine found on the surface of an apoptotic cell. The vital dye DRAQ7 is excluded by intact live cells and only stains cells that have died as a result of apoptosis or necrosis.
Flow cytometry data analysis was then performed using the Flow Jo_v10 software to determine the number of viable cells (Annexin V and DRAQ7 double negative staining cells) and percentage of apoptotic cells (Annexin V positive cells) for each condition. The live cell count for every concentration was normalized to the DMSO control (considered as 100%) to calculate the percentage of viable cells remaining after treatment and graphed using GraphPad Prism 7.03. The IC50 (50% inhibitory concentration) and Emax (maximum efficacy achieved) values were then calculated by performing nonlinear regression curve fitting using log(inhibitor) vs. normalized response—variable slope analysis on GraphPad Prism 7.03. Area under the curve (AUC) was calculated by performing area under curve analysis on GraphPad Prism 7.03. Similarly, for apoptosis analysis, the percentage of apoptosis combining both “early” (Annexin V positive and DRAQ7 negative) and “late” apoptosis (Annexin V and DRAQ7 positive) cell gates relative to DMSO was graphed using GraphPad Prism 7.03. The AUC, EC50 (concentration of compound that produces half-maximal apoptosis response) and Ymax (maximal percentage of apoptosis achieved) values from apoptosis curves were calculated by performing area under curve analysis and nonlinear regression curve fitting using log(agonist) vs. normalized response—Variable slope analysis on GraphPad Prism 7.03.
Dose-response proliferation curves for the panel of hematological cell lines and non-linear curve-fit regression were used to determine IC50, AUC, and Emax for % viable cells (Emax for viability varies between 100 at low doses and 0 at high doses, which corresponds to inhibition of all viable cells), and dose-response apoptosis curves were used to determine the EC50, AUC, and Ymax for % apoptosis (Ymax for apoptosis varies from 0 at low doses and 100 at higher doses which corresponds to death of all cells). […] Viability and apoptosis for all cell lines was determined by Annexin V/[…] flow cytometry.

EHEB cell line = assay: as above; details: EHEB (CLL), 120 h
Method in brief: (§2)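 After plating, cells receive increasing compound concentrations (0.00015 to 10 μM; final DMSO 0.1%). Following a 120-hour incubation, Annexin V and DRAQ7 staining is quantified by flow cytometry. Curve fitting yields viability IC50/Emax and apoptosis EC50/Ymax, together with AUC values.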

DB cell line = assay: as above; details: 120 h
Method in brief: as §2

SU-DHL-4 cell line = assay: Cell proliferation and viability assay using SU-DHL-4 cell line (CellTiter-Glo, 1536-well); details: Homo sapiens; SU-DHL-4, 120 hours, Cell Titer-Glo luminescence
Procedure: Cell Proliferation and Viability Assay Using SU-DHL-4 Cell Line: The following exemplary assay uses a DLBCL cell line, for example, the SU-DHL-4 cell line (Deutsche Sammlung von Mikroorganismen and Zellkulturen GmbH [DSMZ]: catalogue number ACC-495) at 120 hours post-treatment. The seeding density for SU-DHL-4 can be optimized to ensure assay linearity in 1536-well plates.
Increasing concentrations (0.5 nM to 10 μM) of Compound 1 were each spotted in a 20-point dilution fashion (unevenly spaced data points) via an acoustic dispenser (EDC ATS-100) into an empty 1536-well plate. The DMSO concentration was kept constant for a final assay concentration of 0.1% DMSO. […] At the time when exposure of cells to compound began (to), initial viable cell number was assessed via Cell Titer-Gb® Luminescent Cell Viability Assay at a 1 vol: 2 vol ratio according to manufacturer's instructions (Promega Corporation, Madison, Wis.) by quantifying the level of luminescence generated by adenosine-5′-triphosphate (ATP) present in viable cells. After 120 hours, cell viability of the treated cells was assessed via Cell Titer-Gb® and read for luminescence. All growth inhibition curves were processed and evaluated using Activity Base (IDBS, Alameda, Calif.). […]

O=C1CC[C@H](N2C(=O)c3cccc(NCc4ccc(CN5CC(N6CCOCC6)C5)cc4F)c3C2=O)C(=O)N1 [Compound 1, (S)-2-(2,6-dioxopiperidin-3-yl)-4-((2-fluoro-4-((3-morpholinoazetidin-1-yl)methyl)benzyl)amino)isoindoline-1,3-dione]
antiproliferative activity and/or apoptotic effects (hematological cell lines): antiproliferative activity and/or apoptotic effects in almost all hematological cell lines tested | % Viable Cells AUC (Karpas-231 cell line): 449.4 | % Viable Cells Emax (Karpas-231 cell line): 0% | Apoptosis AUC (Karpas-231 cell line): 5.720 | Apoptosis Ymax (Karpas-231 cell line): 5.00% | EC50 (Karpas-231 cell line): 896 µM | IC50 (Karpas-231 cell line; read-out: % Viable Cells IC50): 484 nM | % Viable Cells AUC (EHEB cell line): 319.3 | % Viable Cells Emax (EHEB cell line): 28.68% | Apoptosis AUC (EHEB cell line): 65.03 | Apoptosis Ymax (EHEB cell line): 8.42% | EC50 (EHEB cell line): 506 nM | IC50 (EHEB cell line; read-out: % Viable Cells IC50): 30.3 nM | % Viable Cells AUC (DB cell line): 941.4 | % Viable Cells Emax (DB cell line): 89.46% | Apoptosis AUC (DB cell line): 80.31 | Apoptosis Ymax (DB cell line): 11.62% | IC50 (DB cell line; Homo sapiens, read-out: % Viable Cells IC50): > 10 µM | IC50 (SU-DHL-4 cell line): < 200 nM
